According to patent US20130184222A1, “[…] ACTIVE COMPOSITIONS AND THEIR METHODS OF USE” (AGIOS PHARMACEUTICALS, INC, priority 2010, published 2013):

Tests used:
IDH1 R132H = IDH1 R132H (Homo sapiens, UniProt O75874, R132H); assay: In vitro assay for IDH1 R132H inhibitors (NADPH/aKG, resazurin detection); type: biochemical; conditions: Table 4B; 0.2 μg/ml IDH1 R132H, 50 minutes at room temperature; read-out: IC50, IDH1 R132H Inhibition
How it was run: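 Buffer: 150 mM NaCl, 10 mM MgCl2, 20 mM Tris pH 7.5, 0.03% BSA. Compound was added to substrate mix (8 uM NADPH, 2 mM aKG), then enzyme mix (0.2 μg/ml IDH1 R132H), and incubated 50 min at room temperature. Remaining NADPH was read by resazurin (30 μM in detection mix) to resorufin fluorescence after 5 min, Ex544/Em590.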

HT1080 cells = assay: Cellular assay: inhibition of 2-HG production in HT1080 cells (LC-MS, 48 hours); type: cell-based; conditions: Homo sapiens, HT-1080, 2-HG in media by LC-MS
How it was run: (§1)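 HT1080 or U87MG cells (5000/well, DMEM + 10% FBS) seeded overnight, then exposed to compound (0.2% DMSO final) for 48 h; medium 2-HG measured by LC-MS. Viability read by CellTiter-Glo luminescence at 72 h.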

U87MG cells = assay: Cellular assay: inhibition of 2-HG production in U87MG cells (LC-MS, 48 hours); type: cell-based; conditions: Homo sapiens, U-87 MG, 2-HG in media by LC-MS
How it was run: as §1

IDH1 R132H, sequence (O75874 whole entry R132H): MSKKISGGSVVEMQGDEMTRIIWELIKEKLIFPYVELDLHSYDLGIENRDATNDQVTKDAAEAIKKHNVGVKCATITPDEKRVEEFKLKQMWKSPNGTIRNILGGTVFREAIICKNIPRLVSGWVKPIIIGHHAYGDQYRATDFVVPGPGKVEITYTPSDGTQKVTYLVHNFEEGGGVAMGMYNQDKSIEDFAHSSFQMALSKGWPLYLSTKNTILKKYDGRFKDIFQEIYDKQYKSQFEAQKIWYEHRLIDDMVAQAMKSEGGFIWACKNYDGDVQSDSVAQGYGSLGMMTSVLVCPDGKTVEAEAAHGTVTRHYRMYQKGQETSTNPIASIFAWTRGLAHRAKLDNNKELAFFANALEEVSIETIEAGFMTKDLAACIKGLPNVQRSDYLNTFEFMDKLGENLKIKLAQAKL

SMILES	IC50 (IDH1 R132H)	IC50 (HT1080 cells)	IC50 (U87MG cells)
Cc1nccn1CC(=O)N(c1cccc(F)c1)C(C(=O)NC1CCCCC1)c1ccccc1 (stereo not drawn) [Compound 295]	100 to 1000 nM	1000 to 5000 nM	≤ 250 nM
O=C(NC1CCCCC1)C(c1ccccc1)N(C(=O)Cn1ccnc1)c1cccc(F)c1 (stereo not drawn) [Compound 296]	100 to 1000 nM	1000 to 5000 nM	≤ 250 nM
Cc1ccccc1C(C(=O)NC1CCCCC1)N(C(=O)Cc1ccc2[nH]ccc2c1)c1cccc(F)c1 (stereo not drawn) [Compound 297]	≤ 100 nM	250 to 1000 nM	≤ 250 nM
Cc1ccn(CC(=O)N(c2cccc(F)c2)C(C(=O)NC2CCCCC2)c2ccccc2C)n1 (stereo not drawn) [Compound 298]	100 to 1000 nM	250 to 1000 nM	1000 to 5000 nM
COc1cccc(-c2cccc(N(C(=O)Cn3ccnc3C)C(C(=O)NC3CCCCC3)c3ccccc3C)c2)c1 (stereo not drawn) [Compound 299]	100 to 1000 nM	1000 to 5000 nM	250 to 1000 nM
Cc1ccccc1C(C(=O)NC1CCCCC1)N(C(=O)CNc1ncccc1F)c1cccc(F)c1 (stereo not drawn) [Compound 301]	≤ 100 nM	≤ 250 nM	≤ 250 nM
Cc1ccccc1C(C(=O)NC1CCCCC1)N(C(=O)CNc1cccc(F)n1)c1cccc(F)c1 (stereo not drawn) [Compound 302]	100 to 1000 nM	≤ 250 nM	250 to 1000 nM
Cc1ccccc1C(C(=O)NC1CCCCC1)N(C(=O)COc1cc(C(F)(F)F)ccn1)c1cccc(F)c1 (stereo not drawn) [Compound 303]	100 to 1000 nM	≤ 250 nM	250 to 1000 nM
Cc1ccccc1C(C(=O)NC1CCCCC1)N(Cc1nccs1)C(=O)Cn1ccnc1 (stereo not drawn) [Compound 304]	100 to 1000 nM	> 5000 nM	250 to 1000 nM
Cc1ccccc1C(C(=O)NC1CCCCC1)N(C(=O)Cc1ccccn1)c1cccc(F)c1 (stereo not drawn) [Compound 305]	100 to 1000 nM	250 to 1000 nM	250 to 1000 nM
COC(=O)N1CCCC1C(=O)N(c1cccc(F)c1)C(C(=O)NC1CCCCC1)c1ccccc1C (stereo not drawn) [Compound 306]	≤ 100 nM	250 to 1000 nM	≤ 250 nM
O=C(NC1CCCCC1)C(c1ccccc1Cl)N(C(=O)Cc1cscn1)c1cccc(F)c1 (stereo not drawn) [Compound 307]	≤ 100 nM	250 to 1000 nM	250 to 1000 nM
Cc1ccccc1C(C(=O)NC1CCCCC1)N(C(=O)CNc1ncc[nH]1)c1cccc(F)c1 (stereo not drawn) [Compound 308]	100 to 1000 nM	1000 to 5000 nM	≤ 250 nM
Cc1cnn(CC(=O)N(c2cccc(F)c2)C(C(=O)NC2CCCCC2)c2ccccc2C)c1 (stereo not drawn) [Compound 309]	100 to 1000 nM	250 to 1000 nM	1000 to 5000 nM
Cc1ccccc1C(C(=O)NC1CCCCC1)N(C(=O)CNc1cncc(F)c1)c1cccc(F)c1 (stereo not drawn) [Compound 310]	100 to 1000 nM	250 to 1000 nM	1000 to 5000 nM
Cc1ccccc1C(C(=O)NC1CCCCC1)N(C(=O)Cc1ccncc1)c1cccc(F)c1 (stereo not drawn) [Compound 311]	≤ 100 nM	≤ 250 nM	≤ 250 nM
Cc1nccn1CC(=O)N(c1cccc(F)c1)C(C(=O)NC1CCCCC1)c1ccccc1F (stereo not drawn) [Compound 312]	100 to 1000 nM	1000 to 5000 nM	≤ 250 nM
CN(C)C(=O)Oc1ccc(CC(=O)N(c2cccc(F)c2)C(C(=O)NC2CCCCC2)c2ccccc2F)cc1 (stereo not drawn) [Compound 313]	≤ 100 nM	≤ 250 nM	≤ 250 nM
Cc1nccn1CC(=O)N(c1cccc(F)c1)C(C(=O)NC1CCCCC1)c1ccccc1Cl (stereo not drawn) [Compound 314]	≤ 100 nM	≤ 250 nM	≤ 250 nM
Cc1ccccc1C(C(=O)NC1CCCCC1)N(C(=O)Cn1ccnc1C)c1cccc(-c2ccnn2C)c1 (stereo not drawn) [Compound 315]	100 to 1000 nM	1000 to 5000 nM	≤ 250 nM
Cc1ccccc1C(C(=O)NC1CCCCC1)N(C(=O)CNc1ccccn1)c1cccc(F)c1 (stereo not drawn) [Compound 316]	≤ 100 nM	≤ 250 nM	250 to 1000 nM

SMILES	IC50 (IDH1 R132H)	IC50 (HT1080 cells)	IC50 (U87MG cells)
Cc1ccccc1C(C(=O)NC1CCCCC1)N(C(=O)Cn1cccn1)c1cccc(F)c1 (stereo not drawn) [Compound 317]	100 to 1000 nM	250 to 1000 nM	1000 to 5000 nM
Cc1ccccc1C(C(=O)NC1CCCCC1)N(C(=O)CNC1Cc2cccnc2C1)c1cccc(F)c1 (stereo not drawn) [Compound 318]	100 to 1000 nM	250 to 1000 nM	250 to 1000 nM
Cc1ccccc1C(C(=O)NC1CCCCC1)N(C(=O)Cn1cc[nH]c1=O)c1cccc(F)c1 (stereo not drawn) [Compound 319]	100 to 1000 nM	1000 to 5000 nM	1000 to 5000 nM
O=C(NC1CCCCC1)C(c1ccccc1F)N(C(=O)Cc1cscn1)c1cccc(F)c1 (stereo not drawn) [Compound 320]	≤ 100 nM	250 to 1000 nM	250 to 1000 nM
O=C(NC1CCCCC1)C(c1ccccc1F)N(C(=O)Cn1cnc2ccccc21)c1cccc(F)c1 (stereo not drawn) [Compound 321]	≤ 100 nM	≤ 250 nM	≤ 250 nM
N#Cc1ccc(NCC(=O)N(c2cccc(F)c2)C(C(=O)NC2CCCCC2)c2ccccc2Cl)cc1 (stereo not drawn) [Compound 322]	≤ 100 nM	≤ 250 nM	≤ 250 nM
O=C(NC1CCCCC1)C(c1ccccc1F)N(C(=O)Cn1ccc2ncccc21)c1cccc(F)c1 (stereo not drawn) [Compound 324]	100 to 1000 nM	1000 to 5000 nM	250 to 1000 nM
Cc1ccccc1C(C(=O)NC1CC2CC2C1)N(C(=O)Cn1ccc2ncccc21)c1cccc(F)c1 (stereo not drawn) [Compound 325]	100 to 1000 nM	1000 to 5000 nM	1000 to 5000 nM
Cc1ccccc1C(C(=O)NC1CCCCC1)N(C(=O)Cn1ccnc1N)c1cccc(F)c1 (stereo not drawn) [Compound 326]	100 to 1000 nM	250 to 1000 nM	≤ 250 nM
Cc1ccccc1C(C(=O)NC1CC2CC2C1)N(C(=O)Cn1ccnc1C)c1cccc(F)c1 (stereo not drawn) [Compound 327]	100 to 1000 nM	1000 to 5000 nM	≤ 250 nM
CCC(=O)N1CCCCC1C(=O)N(c1cccc(F)c1)C(C(=O)NC1CCCCC1)c1ccccc1C (stereo not drawn) [Compound 328]	100 to 1000 nM	1000 to 5000 nM	1000 to 5000 nM
Cc1ccccc1C(C(=O)NC1CCC(F)(F)CC1)N(C(=O)Cn1ccnc1C)c1cccc(F)c1 (stereo not drawn) [Compound 330]	100 to 1000 nM	250 to 1000 nM	≤ 250 nM
Cc1ccccc1C(C(=O)NC1CCC(F)(F)CC1)N(C(=O)COc1ccccn1)c1cccc(F)c1 (stereo not drawn) [Compound 331]	≤ 100 nM	≤ 250 nM	≤ 250 nM
Cc1ccccc1[C@@H](C(=O)NC1CCCCC1)N(C(=O)[C@H]1CCCCN1C(=O)OC(C)(C)C)c1cccc(F)c1 [Compound 332]	100 to 1000 nM	250 to 1000 nM	1000 to 5000 nM
Cc1ccccc1C(C(=O)NC1CC2CC2C1)N(C(=O)CNc1ncccc1F)c1cccc(F)c1 (stereo not drawn) [Compound 333]	100 to 1000 nM	≤ 250 nM	1000 to 5000 nM
COC(=O)NCC(=O)N(c1cccc(F)c1)C(C(=O)NC1CCCCC1)c1ccccc1C (stereo not drawn) [Compound 334]	≤ 100 nM	≤ 250 nM	≤ 250 nM
COC(=O)N1CCCC[C@@H]1C(=O)N(c1cccc(F)c1)[C@H](C(=O)NC1CCCCC1)c1ccccc1C [Compound 335]	100 to 1000 nM	250 to 1000 nM	1000 to 5000 nM
COC(=O)N1CCCC[C@H]1C(=O)N(c1cccc(F)c1)[C@H](C(=O)NC1CCCCC1)c1ccccc1C [Compound 336]	100 to 1000 nM	250 to 1000 nM	250 to 1000 nM
Cc1ccccc1[C@@H](C(=O)NC1CCCCC1)N(C(=O)[C@H]1CCCCN1C(=O)OC(C)C)c1cccc(F)c1 [Compound 338]	100 to 1000 nM	250 to 1000 nM	1000 to 5000 nM
Cc1ccccc1[C@@H](C(=O)NC1CCCCC1)N(C(=O)[C@@H]1CCCCN1C(=O)OC(C)C)c1cccc(F)c1 [Compound 339]	100 to 1000 nM	1000 to 5000 nM	1000 to 5000 nM
